One test concerns the target T1, Human α-thrombin (Homo sapiens, UniProt P00734).
T1 construct: Human α-thrombin, and human factor Xa were obtained from Enzyme Research Laboratories; purchased Enzyme Research Laboratories (South Bend, Indiana)
The test is described as follows: In vitro inhibition of purified thrombin (p-nitroanilide substrate hydrolysis, Ki determination). The format is biochemical. Particulars: substrate N-succinyl-Ala-Ala-Pro-Arg-p-nitroanilide, pH 7.5, 37° C.; read-out: Ki against thrombin. The source says:
(§1) Reagents: All buffer salts were obtained from Sigma Chemical Company (St. Louis, Mo.), and were of the highest purity available. The enzyme substrates, N-benzoyl-Phe-Val-Arg-p-nitroanilide (Sigma B7632), N-benzoyl-Ile-Glu-Gly-Arg-p-nitroanilide hydrochloride (Sigma B2291), N-p-Tosyl-Gly-Pro-Lys-p-nitroanilide (Sigma T6140), N-succinyl-Ala-Ala-Pro-Phe-p-nitroanilide (Sigma S7388) and N-CBZ-Val-Gly-Arg-p-nitroanilide (Sigma C7271) were obtained from Sigma. N-succinyl-Ala-Ala-Pro-Arg-p-nitroanilide (BACHEM L-1720) and N-succinyl-Ala-Ala-Pro-Val-p-nitroanilide (BACHEM L-1770) were obtained from BACHEM (King of Prussia, Pa.).
(§2) Human α-thrombin, and human factor Xa were obtained from Enzyme Research Laboratories (South Bend, Indiana). Bovine α-chymotrypsin (Sigma C4129), bovine trypsin (Sigma T8642) and human kidney cell urokinase (Sigma U5004) were obtained from Sigma. Human leukocyte elastase was obtained from Elastin Products (Pacific, Mo.).
(§3) Ki Determinations: All assays are based on the ability of the test compound to inhibit the enzyme catalyzed hydrolysis of a peptide p-nitroanilide substrate. […] In general, substrate concentrations are lower than the experimentally determined value for Km. […]
(§4) In a typical Ki determination, into each well of a 96 well plate is pipetted […] of substrate solution, […] of test compound solution, and the plate allowed to thermally equilibrate at 37° C. in a Molecular Devices plate reader for >15 minutes. Reactions were initiated by the addition of a […] aliquot of enzyme and the absorbance increase at 405 nm is recorded for 15 minutes. […] The ratio of the velocity (rate of change in absorbance as a function of time) for a sample containing no test compound is divided by the velocity of a sample containing test compound, and is plotted as a function of test compound concentration. The data are fit to a linear regression, and the value of the slope of the line calculated. The inverse of the slope is the experimentally determined Ki value. […]

For the next test, the target named is T2, human factor Xa (Homo sapiens, UniProt P00742).
T2 construct: purchased Enzyme Research Laboratories (South Bend, Indiana)
The test is described as follows: In vitro inhibition of purified factor Xa (p-nitroanilide substrate hydrolysis, Ki determination). Particulars: for Ki: substrate N-benzoyl-Ile-Glu-Gly-Arg-p-nitroanilide hydrochloride, pH 7.5, 37° C., read-out: Ki against factor Xa. The format is biochemical.
Source text: as §1, §2, §3, §4

This note sets out measurements from patent US6962942B2, “Azacycloalkanone serine protease inhibitors” (3-Dimensional Pharmaceuticals, Inc., priority 1999, dated 2005).

T2 sequence (P00742 235-488 limits assumed): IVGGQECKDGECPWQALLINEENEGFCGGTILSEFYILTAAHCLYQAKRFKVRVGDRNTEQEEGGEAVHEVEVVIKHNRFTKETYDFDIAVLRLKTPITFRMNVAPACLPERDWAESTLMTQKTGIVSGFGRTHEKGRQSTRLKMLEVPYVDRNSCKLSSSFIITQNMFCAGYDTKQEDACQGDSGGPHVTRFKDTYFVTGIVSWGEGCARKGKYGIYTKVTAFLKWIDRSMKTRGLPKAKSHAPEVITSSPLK
T2 sequence (P00742 41-179 partner limits assumed): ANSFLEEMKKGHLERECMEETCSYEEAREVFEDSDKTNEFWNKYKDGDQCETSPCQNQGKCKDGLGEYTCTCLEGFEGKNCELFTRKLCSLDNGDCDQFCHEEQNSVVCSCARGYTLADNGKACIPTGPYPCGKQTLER

As for `N=C(N)NOCCNC(=O)CN1CCC[C@H](NS(=O)(=O)Cc2ccccc2)C1=O` [Example 2], the Ki at Human α-thrombin was 700 nM. The “activity against factor Xa” value at human factor Xa (at a concentration of 10 μM) was “no activity”.

In the case of `COc1ccc(S(=O)(=O)N[C@H]2CCCN(CC(=O)NCCONC(=N)N)C2=O)cc1` [Example 11], the results for the inhibition constant Ki on Human α-thrombin and at human factor Xa were 1200 nM and 2100 nM, respectively.

For the compound `N=C(N)NOCCNC(=O)CN1CCC[C@H](NS(=O)(=O)c2ccc(-c3ccc4ccccc4c3)cc2)C1=O` [Example 42], the Ki was 6400 nM on Human α-thrombin and 360 nM at human factor Xa.

What is called Ki is the equilibrium dissociation constant of an inhibitor or competing ligand from its target.
